Read-outs that look alike come from different tables or passages of the source.
Assays:
[1] = system: platelet rich rabbit plasma; assay: In vitro platelet antiaggregation activity, arachidonic acid induced, platelet rich plasma; type: cell-based; conditions: Oryctolagus cuniculus; for activity at 10 µg/mL: 10 mcg/ml, arachidonic acid 50 mcg/ml
Method: (§1) The platelet antiaggregation activity was determined in vitro using platelet rich rabbit plasma and arachidonic acid (50 mcg/ml) as aggregation inducing agent. The results are given for tracheal relaxation as percentage inhibition of the tracheal tone relative to the maximum relaxation induced by noradrenaline (0.3 mcg/ml) and for the platelet aggregation as a percentage of the maximum effect observed with the proaggregation agent.

human platelets = assay: In vitro inhibition of human platelet aggregation, Born's method; type: cell-based
Method: The platelet antiaggregation activity of the active products in the initial screening (Table 4) has been confirmed and extended by evaluating the capacity thereof to inhibit in vitro the aggregation of human platelets using Born's method. ADP (1 mcM), collagen (2 mcg/ml), arachidonic acid (1 mM), U-46619 (1,4 mcM) and IBOP (225 nM) were used as aggregation inducing agents. The results obtained (Table 5) show the capacity of the products tested to inhibit dose dependently the platelet aggregation induced by collagen, arachidonic acid, U-46619 and IBOP, probably through interaction with the platelet endoperoxide/thromboxane receptor. Therefore, said compounds might be potentially useful in the treatment of disorders in which the thromboxanes play a part, such as myocardial infarct, cerebrovascular diseases and asthmatic and/or inflammatory states.

[2] = system: histamine induced bronchospasm in anaesthetized guinea pig; assay: In vivo bronchodilatory effect, histamine induced bronchospasm (Konzett and Rossler); conditions: area under the curve relative to theophylline
Method: Konzett and Rosslet's technique was used for evaluation, with the capacity of the tested products, when administered intraduodenally at dose levels of 25 and 100 mg/kg, to antagonize a histamine induced bronchospasm (7.5 mcg/ml) in anaesthetized guinea pig being determined. Theophylline (25 mg/kg, i.d.) was used as reference drug, with the areas under the curve defined by the bronchospasm inhibition percentages and the post-administration time being compared.

[3] = system: isolated guinea pig trachea; assay: In vitro trachea relaxing activity (spontaneous tone in isolated trachea, method of Luduena); type: cell-based; conditions: Cavia porcellus, 30 mcg/ml, relative to maximum relaxation by noradrenaline 0.3 mcg/ml
Method: as §1

rats = assay: Diuretic and saluretic activity (urine volume and electrolyte excretion over 6 h), technique of Lipschits et al.; type: in vivo; conditions: rat, 20 mg/kg po, (N) = not statistically significant vs control
Method: The synthesized compounds were, therefore, subjected a pharmacological screening to evaluate a possible diuretic and salt excreting activity. Thus, an acute dose of each of the products of synthesis (20 or 25 mg/kg) was administered to rats and the amount of urine and the excretion of electrolytes was measured, following the technique described by Lipschits et al., with certain modifications (J. Pharmacol. Exp.Ther. 1943-79; 97-110).
The volume (ml/kg/6 h), the pH and the excretion of sodium, potassium and chloride ions (mEq/kg/6 h) were determined on the urine quantitatively collected over 6 hours, using triamterene and hydrochlorothiazide as reference diuretics.

[4] = IBOP 225 nM, read-out: Concentration inhibiting > 60% platelet aggregation, IBOP
[5] = U-46619 1,4 mcM, read-out: Concentration inhibiting > 60% platelet aggregation, U-46619
[6] = arachidonic acid 1 mM, read-out: Concentration inhibiting > 60% platelet aggregation, arachidonic acid
[7] = collagen 2 mcg/ml, read-out: Concentration inhibiting > 60% platelet aggregation, collagen

Q: For `CCN1c2nc(-c3ccccc3)c(-c3ccccc3)nc2C(N)=NS1(=O)=O` [1-ethyl-6,7-diphenyl, 4-amino-1-ethyl-6,7-diphenylpyrazino[2,3-c]-1,2,6-thiadiazine 2,2-dioxide], which activity at 10 µg/mL [1] is on record?
A: Its activity at 10 µg/mL is 100%.

Q: And the IC60 (human platelets; [4])?
A: Its IC60 is 3 µM.

Q: And the IC60 (human platelets; [5])?
A: The IC60 was 1 µM.

Q: What about the IC60 (human platelets; [6]) of the same molecule?
A: The IC60 was 30 µM.

Q: And the IC60 (human platelets; [7])?
A: The IC60 was 1 µM.

Q: For `CCN1c2ncc(C)nc2C(N)=NS1(=O)=O` [1-ethyl-6-methyl, 4-amino-1-ethyl-6-methylpyrazino[2,3-c]-1,2,6-thiadiazine 2,2-dioxide], which “Bronchodilatory activity (area ratio)” value ([2]; 25 mg/kg i.d.) is on record?
A: The value was 0.8.

Q: What about the “Bronchodilatory activity (area ratio)” value ([2]; 100 mg/kg i.d.) of the same molecule?
A: The value was 1.3.

Q: What about the activity at 30 µg/mL [3] of the same molecule?
A: The activity at 30 µg/mL was 67%.

Q: With `CCN1c2ncc(-c3ccccc3)nc2C(N)=NS1(=O)=O` [1-ethyl-6-phenyl, 4-amino-1-ethyl-6-phenyl-pyrazino[2,3-c]-1,2,6-thiadiazine 2,2-dioxide] as the molecule, how does the activity at 10 µg/mL [1] read?
A: The activity at 10 µg/mL was 100%.

Q: What about the IC60 (human platelets; [4]) of the same molecule?
A: Its IC60 is 1 µM.

Q: And the IC60 (human platelets; [5])?
A: Its IC60 is 10 µM.

Q: And the IC60 (human platelets; [6])?
A: Its IC60 is 30 µM.

Q: And the IC60 (human platelets; [7])?
A: Its IC60 is 1 µM.

Q: How did the response vs control in vivo at 20 mg/kg (rats; read-out: Cl excretion, treated group/control group ratio) turn out when `CCN1c2nc(C)c(-c3ccccc3)nc2C(N)=NS1(=O)=O` [1-ethyl-6-phenyl-7-methyl, 4-amino-1-ethyl-6-phenyl-7-methylpyrazino[2,3-c]-1,2,6-thiadiazine 2,2-dioxide] was run?
A: The response vs control in vivo at 20 mg/kg was 123%.

Q: And the response vs control in vivo at 20 mg/kg (rats; read-out: K excretion, treated group/control group ratio)?
A: The response vs control in vivo at 20 mg/kg was 85%.

Q: What about the response vs control in vivo at 20 mg/kg (rats; read-out: Na excretion, treated group/control group ratio) of the same molecule?
A: Its response vs control in vivo at 20 mg/kg is 142%.

Q: What about the response vs control in vivo at 20 mg/kg (rats; read-out: Na/K) of the same molecule?
A: Its response vs control in vivo at 20 mg/kg is 165%.

Q: And the response vs control in vivo at 20 mg/kg (rats; read-out: Volume urine, treated group/control group ratio)?
A: Its response vs control in vivo at 20 mg/kg is 121%.

Q: What about the activity at 10 µg/mL [1] of the same molecule?
A: The activity at 10 µg/mL was 100%.

Q: And the activity at 30 µg/mL [3]?
A: Its activity at 30 µg/mL is 93%.

Q: And the IC60 (human platelets; [4])?
A: Its IC60 is 3 µM.

Q: What about the IC60 (human platelets; [5]) of the same molecule?
A: Its IC60 is 3 µM.

Q: What about the IC60 (human platelets; [6]) of the same molecule?
A: Its IC60 is 30 µM.

Q: And the IC60 (human platelets; [7])?
A: The IC60 was 1 µM.

Q: Which “Bronchodilatory activity (area ratio)” value ([2]; 25 mg/kg i.d.) does the source give for `CCN1c2nc3c(nc2C(N)=NS1(=O)=O)CCCC3` [4-amino-1-ethyl-6,7,8,9-tetrahydro-1,2,6-thiadiazine[3,4-b]quinoxaline 2,2-dioxide] here?
A: The value was 0.6.

Q: What about the “Bronchodilatory activity (area ratio)” value ([2]; 100 mg/kg i.d.) of the same molecule?
A: Its value is 0.4.

Q: What about the activity at 30 µg/mL [3] of the same molecule?
A: The activity at 30 µg/mL was 82%.

Q: `CCN1c2nc(-c3ccccc3)c(Br)nc2C(N)=NS1(=O)=O` [6-bromo-1-ethyl-7-phenyl, 4-amino-6-bromo-1-ethyl-7-phenylpyrazino[2,3-c]-1,2,6-thiadiazine 2,2-dioxide] was tested. Which activity at 10 µg/mL [1] did it give?
A: Its activity at 10 µg/mL is 100%.

Q: What about the activity at 30 µg/mL [3] of the same molecule?
A: Its activity at 30 µg/mL is 63%.

Q: `CC(=O)Oc1ccccc1C(=O)O` [Aspirin, reference compound] was tested. Which activity at 2.5 µg/mL ([1]; read-out: platelet antiaggregation activity (%)) did it give?
A: Its activity at 2.5 µg/mL is 100%.

Q: How did the “Bronchodilatory activity (area ratio)” value ([2]; 25 mg/kg i.d.) turn out when `Cn1c(=O)c2[nH]cnc2n(C)c1=O` [Theophylline, reference compound] was run?
A: The value was 1.

Q: And the “Bronchodilatory activity (area ratio)” value ([2]; 100 mg/kg i.d.)?
A: The value was 1.

Q: What about the activity at 30 µg/mL [3] of the same molecule?
A: The activity at 30 µg/mL was 60%.

Reference: patent US5580869A, “1N substituted pyrazino[2,3-c]-1,2,6-thiadiazine 2,2-dioxides” (Prodesfarma, S.A., priority 1992, dated 1996)
